Measured values: patent publication EP2767544A1, “AMORPHOUS SUBSTANCE OF 17 -ACETOXY-11 -(4-N,N-DIMETHYLAMINOPHENYL)-19-NORPREGNA-4,9-DIENE-3,20-DIONE AND PREPARATION METHOD THEREOF” (Shanghai Cdymax Pharmaceuticals Co., Ltd., priority 2011, dated 2013)

Experiments:
[1] = Solubility test: apparent solubility in water, supernatant concentration determined by HPLC; conditions: for apparent solubility: excess sample in 0.5ml of water, ultrasonic approx. 3 minutes, standing 30 minutes at room temperature, supernatant by HPLC, 30 min
Protocol: After standing for 30 minutes at room temperature, separate the supernatant by centrifugation. Determine the concentration of sample in supernatant by HPLC (defined as apparent solubility).

[2] = Hygroscopicity test using a microbalance; format: physicochemical; conditions: 25 °C, relative humidity of 5% to 95%, Figure 2
Protocol: Evaluate hygroscopicity of the amorphous substance using a microbalance (MBA300W, WTI Company, USA). Hang the sample placed on the glass rack in an apparatus that preconditioned at 25 °C, and track the changes of sample weight at a relative humidity of 5% to 95%. Measure the weight of sample at each measurement point (relative humidity) at 2 minutes intervals. The final value was the weight unit at a time point that the variability is less than 0.2%.

[3] = Stability test: heat treatment under reduced pressure, analysed by XRPD, DSC, TGA and IR; format: physicochemical; conditions: dried under reduced pressure at 80 °C for 8 hours, then in vacuum for 15 hours, TGA
Protocol: Dry the samples of the amorphous CDB-2914 obtained in the above-mentioned examples under reduced pressure at 80 °C for 8 hours, and then dry in vacuum for 15 hours.

| Compound | solubility relative to crystal form A ([1]; apparent solubility in water, amorphous versus crystal form A) | apparent solubility [1] | hygroscopicity [2] | thermal stability (solid form after heat treatment) [3] |
| --- | --- | --- | --- | --- |
| CC(=O)O[C@]1(C(C)=O)CC[C@H]2[C@@H]3CCC4=CC(=O)CCC4=C3[C@@H](c3ccc(N(C)C)cc3)C[C@@]21C [amorphous form, 17α-acetoxy-11β-(4-N,N-dimethylaminophenyl)-19-norpregna-4,9-diene-3,20-dione] | 8 times | 1 µg/mL | low hygroscopicity | remained amorphous |
| CC(=O)O[C@]1(C(C)=O)CC[C@H]2[C@@H]3CCC4=CC(=O)CCC4=C3[C@@H](c3ccc(N(C)C)cc3)C[C@@]21C [Known crystal(crystal form A), 17α-acetoxy-11β-(4-N,N-dimethylaminophenyl)-19-norpregna-4,9-diene-3,20-dione, reference compound] | – | 0.125 µg/mL | – | – |
